Measurements as given in patent publication US20070219231A1, “Quinolonecarboxylic acid compounds, preparation methods and pharmaceutical uses thereof” (priority 2005, published 2007).

Key:
Test in all cases: MIC, two-fold plate dilution method
Type in all cases: cell-based
K. pneumoniae 7 = settings: K. pneumoniae 7, Gram-negative; Muener-Hinton medium
Source text: (§1) . The pharmaceutically acceptable salts or hydrates thereof have the same antibacterial activity.
(§2) Two-fold plate dilution method is used for determination of activity, with Muener-Hinton medium (DIFCO) as the culture medium and clinically isolated pathogenic strain, quality control strain and standard strain (provided by National Institute for the Control of Pharmaceutical and Biological Products) as test strains.

E. coli 26 = settings: E. coli 26, Gram-negative; Muener-Hinton medium
Source text: as §1, §2

E. coli ATTC 25922 = test system: E. coli ATTC 25922; design: unit not given here; settings: E. coli ATTC 25922, Gram-negative; Muener-Hinton medium
Source text: as §1, §2

K. pneumoniae 14 = test system: K. pneumoniae 14; design: unit not given here; settings: K. pneumoniae 14, Gram-negative; Muener-Hinton medium
Source text: as §1, §2

S. pneumoniae 98 = test system: S. pneumoniae 98; design: unit not given here; settings: S. pneumoniae 98, Gram-positive; Muener-Hinton medium
Source text: as §1, §2

S. pneumoniae 70 = test system: S. pneumoniae 70; design: unit not given here; settings: S. pneumoniae 70, Gram-positive; Muener-Hinton medium
Source text: as §1, §2

Enterococcus 755 = settings: Enterococcus 755, Gram-positive; Muener-Hinton medium
Source text: as §1, §2

S. aureus ATTC 25923 = test system: S. aureus ATTC 25923; design: unit not given here; settings: S. aureus ATTC 25923, Gram-positive; Muener-Hinton medium
Source text: as §2

Structure (SMILES) | MIC (K. pneumoniae 7) | MIC (E. coli 26) | MIC (E. coli ATTC 25922) | MIC (K. pneumoniae 14) | MIC (S. pneumoniae 98) | MIC (S. pneumoniae 70) | MIC (Enterococcus 755) | MIC (S. aureus ATTC 25923)
Cl.Nc1c(F)c(N2C[C@H]3CCCN[C@H]3C2)c(OC(F)F)c2c1c(=O)c(C(=O)O)cn2C1CC1 [Embodiment 18, 5-Amino-1-cyclopropyl-8-difluoromethoxyl-7-[(1R,6R)-2,8-diazabicyclo[4,3,0]nonane-8-yl]-6-fluoro-1,4-dihydro-4-oxoquinoline-3-carboxylic acid hydrochloride] | 0.01 g/mL | 0.01 g/mL | 0.01 | 0.01 | 0.12 |  |  | 
Cl.O=C(O)c1cn(C2CC2)c2c(OC(F)F)c(N3C[C@@H]4CCCN[C@@H]4C3)c(F)cc2c1=O [Embodiment 13, 1-cyclopropyl-8-difluoromethoxyl-7-[(1S,6S)-2,8-diazabicyclo[4,3,0]nonane-8-yl]-6-fluoro-1,4-dihydro-4-oxoquinoline-3-carboxylic acid hydrochloride] | 0.01 g/mL | 0.01 g/mL | 0.01 | 0.01 | 0.01 | 0.12 |  | 
Nc1c(F)c(N2C[C@@H]3CCCN[C@@H]3C2)c(OC(F)F)c2c1c(=O)c(C(=O)O)cn2C1CC1 (relative stereo) [Embodiment 21, 5-Amino-1-cyclopropyl-8-difluoromethoxyl-7-(cis-2,8-diazabicyclo[4,3,0]nonane-8-yl)-6-fluoro-1,4-dihydro-4-oxoquinoline-3-carboxylic acid] |  | <0.00 g/mL |  |  |  |  |  | 
Cl.Nc1c(F)c(N2C[C@@H]3CCCN[C@@H]3C2)c(OC(F)F)c2c1c(=O)c(C(=O)O)cn2C1CC1 [Embodiment 17, 5-amino-1-cyclopropyl-8-difluoromethoxyl-7-[(1S,6S)-2,8-diazabicyclo[4,3,0]nonane-8-yl]-6-fluoro-1,4-dihydro-4-oxoquinoline-3-carboxylic acid hydrochloride] | 0.01 g/mL | 0.01 g/mL | 0.01 | 0.01 | 0.01 | 0.01 | 0.01 g/mL | 
Cl.O=C(O)c1cn(C2CC2)c2c(OC(F)F)c(N3C[C@H]4CCCN[C@H]4C3)c(F)cc2c1=O [Embodiment 14, 1-cyclopropyl-8-difluoromethoxyl-7-[(1R,6R)-2,8-diazabicyclo[4,3,0]nonane-8-yl]-6-fluoro-1,4-dihydro-4-oxoquinoline-3-carboxylic acid hydrochloride] |  |  | 0.01 |  | 0.01 |  |  | 
Cl.O=C(O)c1cn(C2CC2)c2c(OC(F)F)c(N3C[C@@H]4CCCN[C@@H]4C3)c(F)cc2c1=O (racemic) [Embodiment 15, 1-Cyclopropyl-8-difluoromethoxyl-7-[cis-2,8-diazabicyclo[4,3,0]nonane-8-yl]-6-fluoro-1,4-dihydro-4-oxoquinoline-3-carboxylic acid hydrochloride] |  |  |  |  | 0.12 |  |  | 0.12
